Data from patent US7045532B2 (Millennium Pharmaceuticals, Inc., priority 1999, dated 2006).
Like-named read-outs stand apart in the source and are kept apart here.

Target: T1, ACE-2 (Homo sapiens, UniProt Q9BYF1)
T1 construct: a stop codon inserted after the serine immediately preceding the transmembrane domain; made in house; host or cells: CHO K1 cells (transient transfection, purified from conditioned medium)
Assay: ACE-2 Competitive Substrate Assay (ACS Assay)
Type: biochemical

[1] = Ki class, compounds tested in 5% DMSO, 12 concentrations, read-out: Human ACE-2 Activity
[2] = Ki class per key, compounds tested in 5% DMSO, 12 compound concentrations, 25° C., Ki=Kiapp/(1+[S]/Km), read-out: Human ACE-2 Activity
[3] = Table 3, very good ACE-2 inhibiting compounds, species not given, read-out: ACE-2 Activity, Ki
[4] = Ki class, compounds tested in 5% DMSO, 12 compound concentrations, Ki=Kiapp/(1+[S]/Km), read-out: Human ACE-2 Activity

T1 sequence (Q9BYF1 18-740 limits assumed): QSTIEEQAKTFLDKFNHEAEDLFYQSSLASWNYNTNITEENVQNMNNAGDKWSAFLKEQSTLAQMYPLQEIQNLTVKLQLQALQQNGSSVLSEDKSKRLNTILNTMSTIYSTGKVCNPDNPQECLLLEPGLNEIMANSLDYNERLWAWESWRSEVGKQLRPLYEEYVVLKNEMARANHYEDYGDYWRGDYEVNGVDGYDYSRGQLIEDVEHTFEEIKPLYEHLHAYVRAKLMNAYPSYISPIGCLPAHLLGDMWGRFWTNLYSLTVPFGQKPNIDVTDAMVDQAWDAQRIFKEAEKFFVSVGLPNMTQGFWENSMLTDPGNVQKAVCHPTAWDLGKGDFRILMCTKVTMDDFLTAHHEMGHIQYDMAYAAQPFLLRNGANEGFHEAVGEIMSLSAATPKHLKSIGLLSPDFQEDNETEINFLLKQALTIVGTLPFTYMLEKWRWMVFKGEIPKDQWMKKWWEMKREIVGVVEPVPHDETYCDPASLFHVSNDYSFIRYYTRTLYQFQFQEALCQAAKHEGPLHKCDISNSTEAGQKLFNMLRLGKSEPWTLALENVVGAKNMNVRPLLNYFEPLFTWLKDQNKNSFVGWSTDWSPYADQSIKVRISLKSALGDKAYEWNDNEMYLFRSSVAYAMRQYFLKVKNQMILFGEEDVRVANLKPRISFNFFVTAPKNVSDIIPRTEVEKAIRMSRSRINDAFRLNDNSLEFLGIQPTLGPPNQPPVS

Ki [3] | Ki [4] | Compound | other results
– | – | CC(C)CC(N[C@@H](Cc1nc2ccccc2n1Cc1ccccc1)C(=O)O)C(=O)O (single isomer, unassigned) [GR, 2-[2-(1-Benzyl-1H-benzoimidazol-2-yl)-1-carboxy-ethylamino]-4-methyl-pentanoic acid] | Ki [1]: > 500 nM
< 50 nM | – | CC(C)C[C@H](N[C@@H](Cc1ccc(NC(=O)c2cc(F)cc(F)c2)cc1)C(=O)O)C(=O)O [OX, (S,S) 2-{1-Carboxy-2-[4-(3,5-difluoro-benzoylamino)-phenyl]-ethylamino}-4-methyl-pentanoic acid] | Ki [2]: < 100 nM
< 50 nM | – | O=C(O)[C@H](CCc1ccccc1)N[C@@H](Cc1cncn1Cc1cc(Cl)cc(Cl)c1)C(=O)O [PN, (S,S) 2-{1-Carboxy-2-[3-(3,5-dichloro-benzyl)-3H-imidazol-4-yl]-ethylamino}-4-phenyl-butyric acid] | Ki [2]: < 100 nM
< 50 nM | – | CC(C)C[C@H](N[C@@H](Cc1ccccc1Oc1cc(Cl)cc(Cl)c1)C(=O)O)C(=O)O [QN] | Ki [2]: < 100 nM
50 to 100 nM | < 100 nM | CC(C)C[C@H](N[C@@H](Cc1csc(-c2ccc3c(c2)CCO3)n1)C(=O)O)C(=O)O [KI, (S,S)-2-{1-Carboxy-2-[2(2,3-dihydro-benzofaran-5-yl]-thiazol-4-yl]-ethylamino}-4-methyl pentanoic acid] | –
– | – | CC(C)C[C@H](N[C@@H](Cc1ccc(-c2ccncc2)cc1)C(=O)O)C(=O)O [PK, (S,S)-2-[1-Carboxy-2-(4-pyridin-4-yl-phenyl)-ethylamino]-4-methyl-pentanoic acid] | Ki [2]: 100 to 500 nM
< 50 nM | < 100 nM | CC(C)C[C@H](N[C@@H](Cc1ccc(OCc2cc(Cl)cc(Cl)c2)cc1)C(=O)O)C(=O)O [KS, 2-[1-Carboxy-2-[4-(3,5-dichloro-benzyloxy)-phenyl]-ethylamino)-4-methyl-pentanoic acid] | –
50 to 100 nM | < 100 nM | CC(C)C[C@H](N[C@@H](Cc1ccc(-c2ccsc2)cc1)C(=O)O)C(=O)O [NF, (S,S)-2-[1-Carboxy-2-(4-thiophen-3-yl-phenyl)-ethylamino]-4-methyl-pentanoic acid] | –
– | 100 to 500 nM | CC(C)C[C@H](N[C@@H](Cc1ccc(-c2cccc3ccccc23)o1)C(=O)O)C(=O)O [OK] | –
– | – | CC(C)C[C@H](N[C@@H](Cn1ccn(CCc2ccccc2F)c1=O)C(=O)O)C(=O)O [PP, 2-(1-Carboxy-2-{3-[2-(2-fluoro-phenyl)-ethyl]-2-oxo2,3-dihydro-imidazol-1-yl}-ethylamino)-4-methyl-pentanoic acid] | Ki [2]: > 500 nM
– | > 500 nM | CC(C)CC(NC(CC(=O)N1CCN(C(c2ccccc2)c2ccc(Cl)cc2)CC1)C(=O)O)C(=O)O (stereo not drawn) [KW, 2-(1-Carboxy-3-[4-[(4-chloro-phenyl)-phenyl-methyl]-piperazin-1-yl]-3-oxo-propylamino)-4-methyl-pentanoic acid] | –
50 to 100 nM | < 100 nM | CC(C)C[C@H](N[C@@H](Cn1ccn(Cc2ccc(Cl)c(Cl)c2)c1=O)C(=O)O)C(=O)O [KU, (S,S) 2-{1-Carboxy-2-[3-(3,4-dichloro-benzyl)-2-oxo-2,3-dihydro-imidazol-1-yl]ethylamino}-4-methyl-pentanoic acid] | –
< 50 nM | < 100 nM | CC(C)C[C@H](N[C@@H](CC(=O)Nc1nc2ccccc2s1)C(=O)O)C(=O)O [KV, 2-[2-(Benzothiazol-2-ylcarbamoyl)-1-carboxy-ethylamino]-4-methyl-pentanoic acid] | –
– | > 500 nM | COc1ccc2ccccc2c1Cn1cncc1C[C@H](NC(CC(C)C)C(=O)O)C(=O)O (single isomer, unassigned) [IS, 2-[1-Carboxy-2-[3-(2-methoxy-naphthalen-1-ylmethyl)-3H-imidazol-4-yl]-ethylamino]-4-methyl-pentanoic acid] | –
– | 100 to 500 nM | Cc1ccccc1Cn1cncc1C[C@H](NC(CC(C)C)C(=O)O)C(=O)O (single isomer, unassigned) [HW, 2-[1-Carboxy-2-[3-(2-methyl-benzyl)-3H-imidazol-4-yl]-ethylamino]4-methyl-pentanoic acid] | –
– | 100 to 500 nM | CC(C)C[C@H](N[C@@H](Cc1ccc(-c2ccccc2)o1)C(=O)O)C(=O)O [NR, (S,S)-2-[1-Carboxy-2-(5-phenyl-furan-2-yl)-ethylamino]-4-methyl-pentanoic acid] | –
50 to 100 nM | < 100 nM | CC(C)C[C@H](N[C@@H](Cn1ccn(Cc2cccc(F)c2)c1=O)C(=O)O)C(=O)O [OT, 2-{1-Carboxy-2-[3-(3-fluoro-benzyl)-2-oxo-2,3-dihydro-imidazol-1-yl]-ethylamino]-4-methyl-pentanoic acid] | –
– | 100 to 500 nM | CC(C)C[C@H](N[C@@H](Cc1cccc(-c2cc(Cl)cc(Cl)c2)c1)C(=O)O)C(=O)O [MI, (S,S)-2-[1-Carboxy-2-(3,′5′-dichloro-biphenyl-3-yl)-ethylamino]-4-methyl-pentanoic acid] | –
– | – | NCCCC[C@@H](C(=O)O)N(CC(=O)O)CC(=O)O [K, 6-Amino-2-(bis-carboxymethyl-amino)-hexanoic acid] | Ki [1]: > 500 nM

Ki [3] | Ki [4] | Compound | other results
– | 100 to 500 nM | CC(C)C[C@H](N[C@@H](Cc1ccn(-c2ccccc2)n1)C(=O)O)C(=O)O [OD, 2-[1-carboxy-2-(1phenyl-1H-pyrazol-3-yl)-ethylamino]-4-methyl-pentanoic acid] | –
– | – | CCOC(=O)C(CCc1ccccc1)N[C@@H](CC(C)C)C(=O)O (stereo partly drawn) [B, 2-(1-Ethoxycarbonyl-3-phenyl-propylamino)-4-methyl-pentanoicacid] | Ki [1]: > 500 nM
– | > 500 nM | Cc1cc(C[C@H](NC(CC(C)C)C(=O)O)C(=O)O)no1 (stereo in doubt) [IM, 2-[1-Carboxy-2-(5-methyl-isoxazol-3-yl)-ethylamino]-4-methyl-pentanoic acid] | –
50 to 100 nM | < 100 nM | COc1cccc(Cn2cncc2C[C@H](NC(CC(C)C)C(=O)O)C(=O)O)c1OC (single isomer, unassigned) [IO, 2-[1-Carboxy-2-[3-(2,3-dimethoxy-benzyl)-3H-imidazol-4-yl]-ethylamino)4-methyl-pentanoic acid] | –
< 50 nM | < 100 nM | CC(C)C[C@H](N[C@@H](Cc1ccn(Cc2cc(Cl)cc(Cl)c2)n1)C(=O)O)C(=O)O [LP, (S,S)-2-{1-carboxy-2-[1-(3,5-dichlorobenzyl)-1H-pyrazol-3-yl]-ethylamino}-4-methyl pentanoic acid] | –
– | > 500 nM | CC(C)CC(N[C@@H](Cc1cn(Cc2cccc(F)c2F)cn1)C(=O)O)C(=O)O (stereo partly drawn) [IW, 2-[1-Carboxy-2-[1-(2,3-difluoro-benzyl)-1H-imidazol-4-yl]-ethylamino]4-methyl-pentanoic acid] | –
– | > 500 nM | CC(C)C[C@H](N[C@@H](CNC(=O)c1cc2cc(Cl)ccc2[nH]1)C(=O)O)C(=O)O [ND, 2-{1-Carboxy-2-[(5-chloro-1H-indole-2-carbonyl)-amino]-ethylamino}-4-methyl-pentanoic acid] | –
< 50 nM | < 100 nM | CC(C)C[C@H](N[C@@H](Cc1cncn1Cc1cc(Cl)cc(Cl)c1)C(=O)OCc1ccccc1)C(=O)O (single isomer, unassigned) [LC, 2-(1-Benzyloxycarbonyl-2-[3-(3,5-dichloro-benzyl)-3H-imidazol-4-yl]-ethylamino]-4-methyl-pentanoic acid] | –
– | > 500 nM | CC(C)CC(N[C@@H](Cc1cncn1Cc1ccc([N+](=O)[O-])cc1)C(=O)O)C(=O)O (single isomer, unassigned) [ID, 2-[1-Carboxy-2-[3-(4-nitro-benzyl)-3H-imidazol-4-yl]-ethylamino]-4-methyl-pentanoic acid] | –
– | 100 to 500 nM | COc1ccc(-c2ccc(C[C@H](N[C@@H](CC(C)C)C(=O)O)C(=O)O)o2)cc1 [OI, (S,S)-2-{1-Carboxy-2-[5-(4-methoxy-phenyl)-furan-2-yl]-ethylamino}-4-methyl-pentanoic acid] | –
– | > 500 nM | CC(C)C[C@H](N[C@@H](Cn1ccn([C@H](C)c2ccccc2)c1=O)C(=O)O)C(=O)O [MF, 2-[1-Carboxy-2-[2-oxo-3-(1-phenyl-ethyl)-2,3-dihydro-imidazol-1-yl]-ethylamino]-4-methyl-pentanoic acid] | –
– | – | CC(C)CC(N[C@@H](CN(Cc1ccccc1)c1ccccc1)C(=O)O)C(=O)O (stereo partly drawn) [GT, 2-[2-(Benzyl-phenyl-amino)-1-carboxy-ethylamino]-4-methyl-pentanoic acid] | Ki [1]: > 500 nM
– | > 500 nM | CC(C)CC(N[C@@H](Cc1cncn1CCC1CCCCC1)C(=O)O)C(=O)O (single isomer, unassigned) [JJ, 2-[1-Carboxy-2-[3-(2-cyclohexyl-ethyl)-3H-imidazol-4-yl]-ethylamino]4-methyl-pentanoic acid] | –
– | > 500 nM | CC(C)C[C@H](N[C@@H](Cc1ccc(-c2ccsc2)o1)C(=O)O)C(=O)O [NV, (S,S)-2-[1-Carboxy-2-(5-thiophen-3-yl-furan-2-yl)-ethylamino]-4-methyl-pentanoic acid] | –
50 to 100 nM | < 100 nM | CC(C)C[C@H](N[C@@H](CC1COC(=O)N1Cc1cc(Cl)cc(Cl)c1)C(=O)O)C(=O)O (stereo in doubt) [NE, (S,S,S)-2-{1-Carboxy-2-[3-(3,5-dichloro-benzyl)-2-oxo-oxazolidin-4-yl]-ethylamino}-4-methyl-pentanoic acid] | –
< 50 nM | < 100 nM | CC(C)C[C@H](N[C@@H](Cc1ccc(-c2cc(Cl)cc(Cl)c2)cc1)C(=O)O)C(=O)O [NG, (S,S)-2-[1-Carboxy-2-(3′,5′-dichloro-biphenyl-4-yl)-ethylamino]-4-methyl-pentanoic acid] | –
– | 100 to 500 nM | CC(C)CC(N[C@@H](Cc1cncn1Cc1cccc(F)c1)C(=O)O)C(=O)O (single isomer, unassigned) [JR, 2-[1-Carboxy-2-[3-(3-fluoro-benzyl)-3H-imidazol-4-yl]-ethylamino]4-methyl-pentanoic acid] | –
– | > 500 nM | CC(C)CC(N[C@@H](Cc1cncn1Cc1ccc(C#N)cc1)C(=O)O)C(=O)O (single isomer, unassigned) [HB, 2-[1-Carboxy-2-[3-(4-cyano-benzyl)-3H-imidazol-4-yl]-ethylamino)4-methyl-pentanoic acid] | –
